Experimental data as given in patent publication US20110034427A1, “Anti-aging properties of quercetin, 18alpha-glycyrrhetinic acid and hederagenin and their derivatives” (priority 2009, published 2011).
“Also recorded” adds a separate entry of the source.

What was measured:
[1] = system: HFL-1 human diploid fibroblasts; experiment: Lifespan (cumulative population doublings) and morphology of human diploid fibroblasts under continuous treatment; assay type: cell-based; conditions: for appearance of the senescent phenotype (conclusion): continuous treatment, morphology, shape, β-galactosidase positive cells
Method: 1.1. HFL-1 human diploid fibroblasts (HDFs) were used in in vitro conditions (growth at 37° C., 5% CO2 and 95% humidity).
1.2. The cells were maintained in Dulbecco's modified Eagle's medium (DMEM®; Invitrogen Life Technologies Inc.) supplemented with 10% (v/v) fetal calf serum, 100 Units/ma penicillin, 100 μg/ml strepromycin, 2 mM glutamine and 1% (v/v) non-essential amino acids (complete medium).
1.3. The cells were constantly cultured in culture medium supplemented with the substances [final concentration for quercetin (QUER), 18α-glycyrrhetinic acid (18α GA), and hederagenin (HED): 2 μg/ml and for quercetin caprylate (QU-CAP) three concentrations were applied: 0.5, 2 and 5 μg/ml]. Quercetin, 18α-glycyrrhetinic acid and hederagenin were diluted in DMSO (dimethyl sulfoxide) whereas quercetin caprylate was diluted in caprilic/capric triglycerides (CAP). Therefore, the control cultures were incubated in medium supplemented with 0.1% DMSO or 0.1% CAP.
1.4. The cells were replenished with fresh media supplemented with the substances or the diluents every 24 h and their numbers were examined using a Coulter Z2® counter (Coulter Corporation) until they reached senescence (approximately after 13 weeks). The cumulative population doublings performed by each culture were calculated using the following formula: CPD=Σ[PD] where PD=LOG [Nfinal/Ninitial]/LOG [2], where N final represents the number of cells that were measured when each culture reached confluence and N initial represents the number of cells that was initially seeded.
1.5. Photographs of the cells maintained in cell culture and treated with the various substances for the same time period were taken.
1.6. […] More specifically, cells that were incubated with quercetin caprylate gave up to 2.8% more population doublings as compared to the population doublings performed by the relative control cultures. Cells that were incubated with the other substances gave up to 2.9% more population doublings as compared to their relative control cultures.
1.7. […] Cells that were treated with either of the tested substances maintained the young morphology for longer as compared to the control cultures (DMSO-treated and CAP-treated).

[2] = system: middle aged and terminally senescent HFL-1 HDFs; experiment: Reversal of senescent phenotype in middle aged and terminally senescent cells; assay type: cell-based, human; conditions: for proliferation of middle aged cells (FIG. 3A): middle aged HFL-1 (cpd 59), QUER, 18α GA 2 μg/ml, QU-CAP 0.5, 2 and 5 μg/ml; for proliferation of middle aged cells (FIG. 3A) / proliferation of terminally senescent cells (FIG. 3B): 1 week; for morphology of middle aged cells (FIG. 4A) / β-galactosidase activity staining of middle aged cells (FIG. 4A): middle aged HFL-1, 1 week; for β-galactosidase activity staining of middle aged cells (FIG. 4A): QU-CAP all three concentrations; for reversal of the senescent phenotype / rejuvenation effect (conclusion): middle aged cells or terminally senescent cells; for proliferation of terminally senescent cells (FIG. 3B): terminally senescent HFL-1 (cpd 65), QUER 2 μg/ml, QU-CAP 2 and 5 μg/ml; for morphology of terminally senescent cells (FIG. 4B) / β-galactosidase activity of terminally senescent cells (FIG. 4B): terminally senescent HFL-1, 1 week, QU-CAP higher concentrations
Method: 3.1. HFL-1 HDFs that have senesced in vitro were used (growth at 37° C., 5% CO2 and 95% humidity). More specifically, middle aged HFL-1 HDFs (cpd 59) and terminally senescent HFL-1 HDFs (cpd 65) that had senesced in the absence of any substance were used.
3.2. The cells were seeded and maintained in complete medium (see 1.2). Culture medium supplemented with the substances [final concentration for quercetin (QUER), 18α-glycyrrhetinic acid (18α GA), and hederagenin (HED): 2 μg/ml and for quercetin caprylate (QU-CAP) three concentrations were applied: 0.5, 2 and 5 μg/ml] or the diluents (0.1% DMSO or 0.1% CAP) were added 24 h later. The cells were replenished with fresh media supplemented with the substances or the diluents every 24 h for 1 week and their numbers were then examined using a Coulter Z2® counter (Coulter Corporation).
3.3. Detection of β-galactosidase activity was performed in these cells as described above and photographs of the cells following β-galactosidase activity assay were taken.

HFL-1 HDFs [3] = experiment: Levels of oxidized proteins (OxyBlot analysis); assay type: cell-based, human; conditions: HFL-1, 24 h treatment; vs control
Method: 4.1. HFL-1 HDFs were cultured as described in 1.1-1.4. Cells treated with the substances for 24 h and were then lysed and proteins were extracted and subjected to SDS-PAGE (sodium dodecylsulfate polyacrylamide gel electrophorese) followed by OxyBlot analysis that detects the carbonylated groups on proteins. OxyBlot™ is a protein oxidation detection kit.
4.2. […] However it is worth mentioning that OxyBlot analysis detects only carbonylated groups on proteins which is just one oxidative stress-mediated post-translational protein modification.

HFL-1 HDFs [4] = experiment: Cellular survival with or without oxidative stress; assay type: cell-based, human; conditions: for survival to an oxidative stress challenge (conclusion): vs control cells
Method: 6.1. HFL-1 HDFs were cultured as described in 5.1. Following the incubation with the various substances cells were collected and counted using a Coulter Z2® counter (Coulter Corporation). In replica cultures, culture medium supplemented with the substances as described above were also supplemented with 300 μM H2O2 for 2.5 h. The cells were then thoroughly washed with PBS, supplemented with complete medium containing the examined substances and maintained in culture for additional 24 h. They were then collected and counted using a Coulter Z2® counter (Coulter Corporation).

[5] = system: proteasome subunits (β5, α7); experiment: Levels of proteasome subunits (immunoblot); assay type: cell-based, human; conditions: HFL-1, 24 h treatment
Method: 8.1. HFL-1 HDFs were cultured as described in 5.1. Following the incubation with the various substances for 24 h, cells were collected, lysed and proteins were extracted and subjected to SDS-PAGE followed by immunoblot analysis against different proteasome subunits. Protein concentrations were determined using the Bradford method with BSA as a standard.
8.2. […] In total, the increased amount of proteasome subunits expression levels provide an explanation regarding the increased proteasome activities recorded in these cells.

[6] = system: Mouse melanocytes (B10F16 cell line); experiment: Cellular whitening of melanocytes (cell pellet); assay type: cell-based; conditions: for whitening of melanocytes (conclusion): concentration not given; for whitening of melanocyte pellet (FIG. 10): 72 h
Method: A.1. Mouse melanocytes (B10F16 cell line) were used in in vitro conditions (growth at 37° C., 5% CO2 and 95% humidity).
A.2. The cells were maintained in Dulbecco's modified Eagle's medium (DMEM®; Invitrogen Life Technologies Inc.) supplemented with 10% (v/v) fetal calf serum, 100 Units/ma penicillin, 100 μg/ml strepromycin, 2 mM glutamine and 1% (v/v) non-essential amino acids (complete medium).
A.3. 10^5 cells were seeded in petri dishes and the following day they were fed with medium supplemented with the substances [final concentration for all substances: 5 μg/ml and 10 μg/ml]. Quercetin (QUER), 18α-glycyrrhetinic acid (18α GA) and hederagenin (HED) were diluted in DMSO whereas quercetin caprylate was diluted in caprilic/capric triglycerides (CAP). Therefore, the control cultures were incubated in medium supplemented with 0.1% DMSO or 0.1% CAP. The media were replenished every 24 h and the cells were kept under these conditions constantly for 72 h. Cells were then collected and pelleted and the cell pellet was photographed.
A.4. […] The result was positively correlated to the concentration of quercetin used.

tyrosinase = experiment: Tyrosinase expression (immunoblot); assay type: cell-based, mouse; conditions: for protein expression levels of tyrosinase (conclusion): concentration not given; for protein levels of tyrosinase (FIG. 11): mouse melanocytes, 72 h
Method: B.1. Mouse melanocytes were cultured as described in A.1.-A.3. After 72 h of treatment, the cells were collected, lysed and proteins were extracted and subjected to SDS-PAGE followed by immunoblot analysis against tyrosinase. Protein concentrations were determined using the Bradford method with BSA as a standard.

protein levels of tyrosinase (FIG. 11) (tyrosinase; high concentration)	Molecule	appearance of the senescent phenotype (conclusion) [1]	proliferation of middle aged cells (FIG. 3A) [2]	morphology of middle aged cells (FIG. 4A) [2]	β-galactosidase activity staining of middle aged cells (FIG. 4A) [2]	reversal of the senescent phenotype / rejuvenation effect (conclusion) [2]	levels of oxidized (carbonylated) proteins (FIG. 5) (HFL-1 HDFs [3])	higher survival rate after oxidative stress as compared to control cultures (HFL-1 HDFs [4]; 300 μM H2O2 for 2.5 h, then additional 24 h in culture)	higher survival rate as compared to diluent-treated cells (HFL-1 HDFs [4]; 24 h treatment, without oxidative stress)	survival to an oxidative stress challenge (conclusion) (HFL-1 HDFs [4])	protein levels of proteasome subunits β5 and α7 (FIG. 9) [5]	whitening of melanocytes (conclusion) [6]	whitening of melanocyte pellet (FIG. 10) ([6]; lower concentration (5 μg/ml))	protein expression levels of tyrosinase (conclusion) (tyrosinase)	proliferation of terminally senescent cells (FIG. 3B) [2]	morphology of terminally senescent cells (FIG. 4B) [2]	β-galactosidase activity of terminally senescent cells (FIG. 4B) [2]	whitening of melanocyte pellet (FIG. 10) ([6]; both concentrations (5 and 10 μg/ml))	protein levels of tyrosinase (FIG. 11) (tyrosinase; 5 and 10 μg/ml)	more population doublings as compared to the relative control cultures ([1]; HFL-1, continuous treatment about 13 weeks, QU-CAP 0.5, 2 and 5 μg/ml, others 2 μg/ml, vs 0.1% DMSO or 0.1% CAP)
–	CC1(C)[C@@H](O)CC[C@]2(C)[C@H]3C(=O)C=C4[C@H]5C[C@@](C)(C(=O)O)CC[C@]5(C)CC[C@@]4(C)[C@]3(C)CC[C@@H]12 [18α-glycyrrhetinic acid]	delay in the appearance of the senescent phenotype	higher proliferation rates	acquired a morphology more similar to the one exhibited by young cells	less positive to β-galactosidase activity staining	regained a younger morphology and were induced to limited but significant proliferation	lower amounts of oxidized proteins; also recorded: slightly lower levels	2%	3.5%	survived better	similar	revealed whitening potential	revealed whitening potential	decrease of the protein expression levels of tyrosinase	–	–	–	–	–	–
reduced protein levels of tyrosinase	CC1(C)CC[C@]2(C(=O)O)CC[C@]3(C)C(=CC[C@@H]4[C@@]5(C)CC[C@H](O)[C@@](C)(CO)[C@@H]5CC[C@]43C)[C@@H]2C1 [hederagenin, Hederagenin]	–	–	–	–	–	–	–	–	–	did not detect any up-regulation	revealed whitening potential	revealed whitening potential	decrease of the protein expression levels of tyrosinase	–	–	–	–	–	–
–	O=c1c(O)c(-c2ccc(O)c(O)c2)oc2cc(O)cc(O)c12 [quercetin, Quercetin]	delay in the appearance of the senescent phenotype	higher proliferation rates	acquired a morphology more similar to the one exhibited by young cells	less positive to β-galactosidase activity staining	regained a younger morphology and were induced to limited but significant proliferation	–	–	–	survived better	elevated protein levels	revealed whitening potential	–	decrease of the protein expression levels of tyrosinase	limited but significant cell proliferation	acquired a morphology that exhibits more similarities with the morphology of young fibroblasts	many of those cells were negative for β-galactosidase activity	revealed whitening potential	reduced protein levels of tyrosinase	–
–	Quercetin caprylate	delay in the appearance of the senescent phenotype	higher proliferation rates	acquired a morphology more similar to the one exhibited by young cells	less positive to β-galactosidase activity staining	regained a younger morphology and were induced to limited but significant proliferation	lower amounts of oxidized proteins; also recorded: less oxidized proteins	–	–	survived better	elevated protein levels	–	–	–	limited but significant cell proliferation	acquired a morphology that exhibits more similarities with the morphology of young fibroblasts	many of those cells were negative for β-galactosidase activity	–	reduced protein levels of tyrosinase	up to 2.8%
